Source: PubChem BioAssay AID328 (DTP/NCI, 2004)
Where “and” joins values, the source holds several entries; their conditions need not be identical. Equal values may be shown once. Toxic doses and inconclusive results are not listed.

Test system: BDF1 mice, P388 leukemia ip, median survival T/C
Assay: NCI In Vivo Anticancer Drug Screen. Data for tumor model P388 Leukemia (intraperitoneal) in B6D2F1 (BDF1) mice
Settings: endpoint: median survival time, higher = longer survival
Procedure, shortened: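 In tumour-bearing mice, survival after compound treatment is set against the vehicle group and given as a quotient.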

With `COc1cccc2c1C(=O)c1c(O)c3c(c(O)c1C2=O)C[C@@](O)(C(C)=O)C[C@@H]3OC1CC(N)C(O)C(C)O1` (stereo partly specified) the T/C (dose: 0.03 mg/kg/injection, schedule: Q01DX010 (ip), vehicle: saline) was 108 % of control, the T/C (dose: 0.06 mg/kg/injection, schedule: Q## X020 (ip), vehicle: saline) was 108 % of control and the T/C (dose: 0.13 mg/kg/injection, schedule: Q01DX010 (ip), vehicle: saline) was 150 % of control. The T/C (dose: 0.13 mg/kg/injection, schedule: Q03HX024 (ip), vehicle: saline) was 200 % of control, the T/C (dose: 0.13 mg/kg/injection, schedule: Q## X020 (ip), vehicle: saline) was 100 % of control and the T/C (dose: 0.21 mg/kg/injection, schedule: Q03HX024 (ip), vehicle: saline) was 210 % of control. For the same compound, the T/C (dose: 0.21 mg/kg/injection, schedule: Q## X010 (ip), vehicle: saline) was 190 % of control, the T/C (dose: 0.21 mg/kg/injection, schedule: Q## X020 (ip), vehicle: saline) was 195 % of control and the T/C (dose: 0.25 mg/kg/injection, schedule: Q01DX009 (ip), vehicle: saline) was 208 % of control. For the same compound, the T/C (dose: 0.25 mg/kg/injection, schedule: Q01DX010 (ip), vehicle: clinical formulation) was 159 % of control, the T/C (dose: 0.36 mg/kg/injection, schedule: Q03HX024 (ip), vehicle: saline) was 205 % of control and the T/C (dose: 0.36 mg/kg/injection, schedule: Q04DX003 (ip), vehicle: saline) was 180 % of control. The T/C (dose: 0.36 mg/kg/injection, schedule: Q## X020 (ip), vehicle: saline) was 200 % of control, the T/C (dose: 0.38 mg/kg/injection, schedule: Q01DX010 (ip), vehicle: saline) was 189 % of control and the T/C (dose: 0.5 mg/kg/injection, schedule: Q01DX009 (ip), vehicle: saline) was 170 % of control. The T/C (dose: 0.5 mg/kg/injection, schedule: Q01DX010 (ip), vehicle: clinical formulation) was 168 % of control, the T/C (dose: 0.5 mg/kg/injection, schedule: Q01DX010 (ip), vehicle: water) was 175 % of control and the T/C (dose: 0.5 mg/kg/injection, schedule: Q03HX008 (ip), vehicle: water) was 181 % of control. The T/C (dose: 0.5 mg/kg/injection, schedule: Q06HX004 (ip), vehicle: water) was 190 % of control, the T/C (dose: 0.5 mg/kg/injection, schedule: Q## X020 (ip), vehicle: saline) was 100 % of control and 207 % of control and the T/C (dose: 0.6 mg/kg/injection, schedule: Q03HX024 (ip), vehicle: saline) was 235 % of control. For the same compound, the T/C (dose: 0.6 mg/kg/injection, schedule: Q04DX003 (ip), vehicle: saline) was 215 % of control, the T/C (dose: 0.6 mg/kg/injection, schedule: Q## X010 (ip), vehicle: saline) was 210 % of control and the T/C (dose: 0.6 mg/kg/injection, schedule: Q## X020 (ip), vehicle: saline) was 190 % of control. The T/C (dose: 0.63 mg/kg/injection, schedule: Q01DX010 (ip), vehicle: saline) was 195 % of control and 200 % of control, the T/C (dose: 0.75 mg/kg/injection, schedule: Q01DX010 (ip), vehicle: saline) was 205 % of control and the T/C (dose: 0.78 mg/kg/injection, schedule: Q04DX002 (ip), vehicle: saline) was 172 % of control. The T/C (dose: 1.0 mg/kg/injection, schedule: Q01DX009 (ip), vehicle: saline) was 108 % of control, the T/C (dose: 1.0 mg/kg/injection, schedule: Q01DX010 (ip), vehicle: clinical formulation) was 163 % of control and the T/C (dose: 1.0 mg/kg/injection, schedule: Q01DX010 (ip), vehicle: water) was 195 % of control. For the same compound, the T/C (dose: 1.0 mg/kg/injection, schedule: Q03HX008 (ip), vehicle: water) was 204 % of control, the T/C (dose: 1.0 mg/kg/injection, schedule: Q03HX024 (ip), vehicle: saline) was 115 % of control and the T/C (dose: 1.0 mg/kg/injection, schedule: Q04DX003 (ip), vehicle: water) was 115 % of control. The T/C (dose: 1.0 mg/kg/injection, schedule: Q06HX004 (ip), vehicle: water) was 190 % of control, the T/C (dose: 1.0 mg/kg/injection, schedule: Q## X010 (ip), vehicle: saline) was 200 % of control and the T/C (dose: 1.0 mg/kg/injection, schedule: Q## X020 (ip), vehicle: saline) was 287 % of control and 108 % of control and 209 % of control. For the same compound, the T/C (dose: 1.25 mg/kg/injection, schedule: Q01DX009 (ip), vehicle: water) was 176 % of control, the T/C (dose: 1.25 mg/kg/injection, schedule: Q01DX010 (ip), vehicle: saline) was 227 % of control and 215 % of control and the T/C (dose: 1.3 mg/kg/injection, schedule: Q01DX009 (ip), vehicle: clinical formulation) was 231 % of control. For the same compound, the T/C (dose: 1.5 mg/kg/injection, schedule: Q01DX010 (ip), vehicle: saline) was 210 % of control, the T/C (dose: 1.56 mg/kg/injection, schedule: Q01DX009 (ip), vehicle: water) was 157 % of control and 196 % of control and the T/C (dose: 1.56 mg/kg/injection, schedule: Q04DX002 (ip), vehicle: saline) was 209 % of control. For the same compound, the T/C (dose: 1.7 mg/kg/injection, schedule: Q04DX003 (ip), vehicle: saline) was 225 % of control, the T/C (dose: 1.7 mg/kg/injection, schedule: Q## X010 (ip), vehicle: saline) was 165 % of control and the T/C (dose: 1.7 mg/kg/injection, schedule: Q## X020 (ip), vehicle: saline) was 180 % of control. The T/C (dose: 1.8 mg/kg/injection, schedule: Q01DX009 (ip), vehicle: water) was 161 % of control, the T/C (dose: 2.0 mg/kg/injection, schedule: Q01DX009 (ip), vehicle: clinical formulation) was 257 % of control and the T/C (dose: 2.0 mg/kg/injection, schedule: Q01DX010 (ip), vehicle: clinical formulation) was 172 % of control. The T/C (dose: 2.0 mg/kg/injection, schedule: Q01DX010 (ip), vehicle: water) was 95 % of control, the T/C (dose: 2.0 mg/kg/injection, schedule: Q03HX008 (ip), vehicle: water) was 95 % of control and the T/C (dose: 2.0 mg/kg/injection, schedule: Q06HX004 (ip), vehicle: water) was 195 % of control. For the same compound, the T/C (dose: 2.5 mg/kg/injection, schedule: Q01DX001 (ip), vehicle: saline) was 109 % of control and 215 % of control, the T/C (dose: 2.5 mg/kg/injection, schedule: Q01DX009 (ip), vehicle: water) was 97 % of control and the T/C (dose: 2.9 mg/kg/injection, schedule: Q04DX003 (ip), vehicle: saline) was 200 % of control. For the same compound, the T/C (dose: 3.0 mg/kg/injection, schedule: Q01DX009 (ip), vehicle: clinical formulation) was 157 % of control, the T/C (dose: 3.0 mg/kg/injection, schedule: Q01DX009 (ip), vehicle: water) was 173 % of control and the T/C (dose: 3.0 mg/kg/injection, schedule: Q01DX010 (ip), vehicle: saline) was 189 % of control. The T/C (dose: 3.13 mg/kg/injection, schedule: Q01DX009 (ip), vehicle: water) was 90 % of control, the T/C (dose: 3.13 mg/kg/injection, schedule: Q04DX002 (ip), vehicle: saline) was 169 % of control and 181 % of control and the T/C (dose: 4.0 mg/kg/injection, schedule: Q01DX010 (ip), vehicle: clinical formulation) was 104 % of control. The T/C (dose: 4.0 mg/kg/injection, schedule: Q01DX010 (ip), vehicle: water) was 90 % of control, the T/C (dose: 4.5 mg/kg/injection, schedule: Q01DX009 (ip), vehicle: clinical formulation) was 100 % of control and the T/C (dose: 5.0 mg/kg/injection, schedule: Q01DX010 (ip), vehicle: saline) was 120 % of control. The T/C (dose: 6.25 mg/kg/injection, schedule: Q04DX002 (ip), vehicle: saline) was 100 % of control, the T/C (dose: 13.33 mg/kg/injection, schedule: Q04DX003 (ip), vehicle: water) was 100 % of control and 207 % of control and the T/C (dose: 16.0 mg/kg/injection, schedule: Q04DX009 (ip), vehicle: water) was 96 % of control. For the same compound, the T/C (dose: 78.0 micrograms/kg/injection, schedule: Q01DX010 (ip), vehicle: saline) was 165 % of control, the T/C (dose: 125.0 micrograms/kg/injection, schedule: Q01DX010 (ip), vehicle: clinical formulation) was 150 % of control and the T/C (dose: 156.0 micrograms/kg/injection, schedule: Q01DX010 (ip), vehicle: saline) was 185 % of control. The T/C (dose: 250.0 micrograms/kg/injection, schedule: Q01DX010 (ip), vehicle: clinical formulation) was 183 % of control, the T/C (dose: 313.0 micrograms/kg/injection, schedule: Q01DX010 (ip), vehicle: saline) was 185 % of control and the T/C (dose: 500.0 micrograms/kg/injection, schedule: Q01DX010 (ip), vehicle: clinical formulation) was 195 % of control. For the same compound, the T/C (dose: 625.0 micrograms/kg/injection, schedule: Q01DX010 (ip), vehicle: saline) was 200 % of control, the T/C (dose: 1300.0 micrograms/kg/injection, schedule: Q04DX003 (ip), vehicle: water) was 174 % of control and the T/C (dose: 2160.0 micrograms/kg/injection, schedule: Q04DX003 (ip), vehicle: water) was 162 % of control. The T/C (dose: 3600.0 micrograms/kg/injection, schedule: Q04DX003 (ip), vehicle: water) was 117 % of control.
